Measurements reported in patent US5464869A, “Use of dimercaptan acids, salts and metabolites thereof as antiretroviral treatments” (Ethicon, Inc., priority 1995, dated 1995).
“And” between values parts separate entries of the source, which are not always exact repeats. Identical values can stand only once.

Key:
[1] = calcium, magnesium, manganese, iron and zinc; cited from earlier work
[2] = tested on: T4 lymphocytes (CEM cell line); experiment: Toxicity control: growth inhibition of uninfected T4 lymphocytes (CEM cell line), XTT; details: for Uninfected response: uninfected CEM cells, vs uninfected untreated control, 6 days, 8640 min
Description: (§1) FIGS. 1-4 are plots of the log10 of the meso-2,3 dimercaptosuccinic acid concentrations (as moles/L or Molar) against the measured test values expressed as a percentage of the uninfected, untreated control values.
(§2) 1. Dimercaptosuccinic acid was dissolved in dimethyl sulfoxide (unless otherwise instructed) then diluted 1:100 in cell culture medium before preparing serial half-log10 dilutions. T4 lymphocytes (CEM cell line) were added and after a brief interval HIV-1 is added, resulting in a 1:200 final dilution of the compound. Uninfected cells with the compound serve as a toxicity control, and infected and uninfected cells without the compound serve as basic controls.
(§3) 2. The cultures were incubated at 37° in a 5% carbon dioxide atmosphere for 6 days.
(§4) 3. The tetrazolium salt, XTT, was added to all wells, and cultures were incubated to allow formazan color development by viable cells.
(§5) 4. Individual wells were analyzed spectrophotometrically to quantitate formazan production, and in addition were viewed microscopically for detection of viable cells and confirmation of protective activity.
(§6) 5. Drug-treated virus-infected cells were compared with drug-treated noninfected cells and with other appropriate controls (untreated infected and untreated noninfected cells, drug-containing wells without cells, etc.) on the same plate.

HIV-1 = experiment: microbe, parasite or virus in culture
Source text: as §1
The procedure used to test dimercaptosuccinic acid's activity against Human Immunodeficiency Virus (HIV) is the assay developed by Owen S. Weislow et al. described in "Journal of the National Cancer Institute," Vol. 81, No. 8, April 19, 1989 which is hereby incorporated herein by reference. The assay basically involves the killing of T4 lymphocytes by HIV. Small amounts of HIV are added to cells, and a complete cycle of virus reproduction is necessary to obtain the required cell killing. Agents that interact with virions, cells, or virus gene-products to interfere with viral activities will protect cells from cytolysis. All tests are compared with at least one positive (e.g., AZT-treated) control done at the same time under identical conditions.
as §2, §3, §4, §5, §6
6. The data was reviewed in comparison with four other tests done at the same time and a determination about activity was made.

[3] = lead, mercury and arsenic; numerous animal studies; cited from earlier work

Compound: O=C(O)[C@@H](S)[C@@H](S)C(=O)O [dimercaptosuccinic acid, meso-2,3 dimercaptosuccinic acid]
- Effect on excretion of essential minerals [1]: not to increase the excretion of essential minerals
- Uninfected response ([2]; 1.40 × 10^-4 Molar, 140 µM, 140 µM): 80.02% of Control and 81.43% of Control and 107.87% of Control and 105.07% of Control
- Uninfected response ([2]; 1.40 × 10^-5 Molar, 14 µM, 14 µM): 74.62% of Control and 87.58% of Control and 118.28% of Control and 102.83% of Control
- Uninfected response ([2]; 4.30 × 10^-4 Molar, 430 µM, 430 µM): 106.57% of Control and 107.46% of Control and 124.09% of Control and 128.49% of Control
- Uninfected response ([2]; 4.40 × 10^-5 Molar, 44 µM, 44 µM): 84.59% of Control and 85.17% of Control and 125.62% of Control and 102.99% of Control
- IC50 ([2]; Homo sapiens, CCRF-CEM, 144 h, read-out: 50% inhibitory concentration (IC50)): > 1400 µM
- Infected response (HIV-1; 1.40 × 10^-4 Molar, HIV-1 infected CEM cells, vs uninfected untreated control, 6 days, 140 µM, 8640 min, 140 µM): 84.32% of Control and 103.60% of Control and 95.01% of Control
- Conclusion (determination of activity) (HIV-1; HIV-1, CEM cells, 6 days, Tables I-IV): CONFIRMED ACTIVE
- viability at 140 µM (HIV-1; Human immunodeficiency virus 1, CCRF-CEM, in Homo sapiens, 144 h, read-out: Infected response, 1.40 × 10^-4 Molar, HIV-1 infected CEM cells, vs uninfected untreated control, 6 days): 94.3%
- Overall conclusion on antiretroviral effectiveness (HIV-1; drawn from data of Tables I-IV): effective as a treatment for retroviruses in warm blooded animals
- Heavy metal chelating effect [3]: effective heavy metal chelating agent for lead, mercury and arsenic
